Test results taken from patent US8664271B2, “Stabilized leukotriene B4 (LTB4) agent pharmaceutical formulation” (LTB4 Sweden AB, priority 2004, dated 2014).

Key:
Format in all cases: physicochemical
[1] = Effect of pH (phosphate/glycine buffer) on stability of aqueous LTB4 Na salt solution at 1.75 mg/ml
Description: Aqueous isotonic LTB4 Na salt solutions at the concentration of 1.75 mg/ml in phosphate/glycine buffered saline (3 mM sodium phosphate and 10 mM glycine buffer, pH 7.5, 8.5, 9.5 and 10.5) containing 0.01% EDTA were obtained by dilution of a 25 mg/ml solution of LTB4 Na salt (see Example 2) with the appropriate phosphate/glycine buffered saline containing 0.01% EDTA. Solutions were dispensed in 2 ml vials for storage under air, in the dark at 4±4° C. and 20±5° C. for 9 months prior to reverse phase HPLC analysis of LTB4 and impurities as described in Example 1.

[2] = Effect of pH (phosphate buffer) on stability of aqueous LTB4 Na salt solution at 17.5 μg/ml
Description: Aqueous isotonic LTB4 Na salt solutions at the concentration of 17.5 μg/ml were obtained by dilution in phosphate buffered saline (3 mM sodium phosphate buffer, pH 7.5, 8.5, 9.5 and 10.5) containing 0.01% EDTA of an LTB4 Na salt solution at 25 mg/ml (Example 2). Solutions of LTB4 Na salt at 17.5 μg/ml of the 4 different pH were dispensed in 2 ml vials for storage under air, in the dark at 4±4° C. or 20±5° C. for 15 months prior to reverse phase HPLC analysis of LTB4 and impurities, as described in Example 1.

[3] = Forced degradation of ethanolic solutions of LTB4 (acid form and Na salt)
Description: The ethanolic solution of LTB4 (acid form) (EtOH/water, 95/5) obtained from the manufacturer (Cascade Biochem, UK) was diluted with EtOH/water, 95/5 to generate ethanolic solutions of LTB4 (acid form) at 9 and 0.9 mg/ml. Ethanolic solutions of the sodium salt of LTB4 at 9 and 0.9 mg/ml were obtained by adding 1.05 equivalent of sodium hydroxide. Solutions of the sodium salt of LTB4 at the concentration of 9 and 0.9 mg/ml in 75/25 EtOH/10 mM glycine in water at pH 10.5 (sodium hydroxide), were obtained by mixing 3 volumes of solutions of the sodium salt of LTB4 at 12 and 1.2 mg/ml in EtOH/water, 95/5 with 1 volume of 40 mM glycine buffer at pH 10.5. Solutions were dispensed in 2 ml vials for storage under air in the dark at −80° C. and 40±5° C. for 17 months prior to reverse phase HPLC analysis of LTB4 and impurities as described in Example 1.

[4] = Stability of freeze-dried LTB4 Na salt solutions (mannitol, with or without HSA); conditions: for level of impurities: freeze-dried solution 35 μg/ml, pH 7.5, 4% mannitol
Description: Aqueous isotonic LTB4 Na salt solutions at the concentration of 35 μg/ml in phosphate buffered saline (3 mM sodium phosphate buffer, pH 7.5 or 9.5) containing 0.01% EDTA were obtained as described in Example 5. Mannitol was added to all solutions to the final concentration of 4% in order to generate a solid residue (mannitol bread) containing LTB4 Na salt and all components of the excipient upon freeze-drying. Fatty acid free (delipidated) human serum albumine (HSA, Sigma Chemicals, St-Louis, Mo.) was added to some of the solutions to the final concentration of 1 mg/ml prior to final pH adjustment (to 7.5 or 9.5). Solutions were dispensed in 2 ml vials, frozen at −20° C. and freeze-dried. The vials containing the freeze-dried solutions (mannitol breads) were then sealed as described in Example 1 (but under air instead of argon), and stored in the dark at 40±5° C. After 1.5 or 4.5 months, vials were opened and the mannitol breads (containing LTB4) were dissolved using 1 ml of water to regenerate the original LTB4 Na salt solutions at 35 μg/ml. LTB4 and impurities were then analyzed by reverse phase HPLC as described in Example 1.

[5] = Effect of glycine buffer strength and pH on stability of aqueous LTB4 Na salt solutions; conditions: 5 months at 40° C.; for level of impurities: 35 μg/ml
Description: Aqueous isotonic LTB4 Na salt solutions at the concentration of 35 and 350 μg/ml in phosphate buffered saline ([…]) containing 0.01% EDTA and various concentrations of glycine (from 0.01 mM to 10 mM) were obtained by dilution of a 25 mg/ml solution of LTB4 Na salt (Example 2). Solutions of LTB4 Na salt at 35 and 350 μg/ml at the 4 different glycine concentrations were dispensed in 2 ml vials for storage under air in the dark at 40±5° C. for 5 months prior to reverse phase HPLC analysis of LTB4 and impurities as described in Example 1.

[6] = Forced degradation of aqueous LTB4 sodium salt solutions at increasing sodium hydroxide concentrations; conditions: for impurity level: five weeks at 40° C.; for pH after five weeks of storage / final pH (after five weeks): 40° C.
Description: An ethanolic solution of LTB4 (acid form) obtained from Cascade Biochem (UK) was neutralized by the addition of 1 equivalent of sodium hydroxide to generate LTB4 sodium salt. Aliquots of the ethanolic solution of the sodium salt of LTB4 were dispensed into 2-ml vials (to obtain 2 mg of LTB4 per vial) and the solvent was evaporated to dryness under a stream of nitrogen. The residues in vials were dissolved with 0.9% sodium chloride (NaCl) (vial 1), 0.9% NaCl in 0.1 mN NaOH (vial 2), 0.9% NaCl in 1 mN NaOH (vial 3), 0.9% NaCl in 10 mN NaOH (vial 4), 0.3% NaCl in 0.1N NaOH (vial 5) and in 1N NaOH (vial 6). Aliquots of the solutions were taken for immediate analysis (to) and the remaining solutions of LTB4 sodium salt at 2 mg/ml were stored under air, in the dark at 40±5° C. for five weeks, prior to reverse phase HPLC analysis of LTB4 and impurities as described in example 1.

CCCCC/C=C\C[C@@H](O)/C=C/C=C/C=C\[C@@H](O)CCCC(=O)[O-].[Na+] [LTB4 Na salt]
effect of increasing pH on stability ([1]; 1.75 mg/ml, phosphate/glycine buffered saline pH 7.5 to 10.5, 0.01% EDTA, 9 months at 4° C. and 20° C.): strikingly increases the stability | effect of increasing pH on solution stability ([1]; forced degradation, storage at 40° C., data not shown): dramatic improvement | degradation of LTB4 ([2]; pH 7.5 to 10.5, 15 months of storage at 4° C.): very little degradation | effect of increasing pH on stability ([2]; phosphate buffered saline pH 7.5 to 10.5, 0.01% EDTA, 15 months, more evident at 20° C.): strikingly increases the stability | impurity level ([3]; 0.9 mg/ml in 75/25 EtOH/10 mM glycine pH 10.5, 17 months at 40° C.): 4.3 % of AUC | impurity level ([3]; 0.9 mg/ml in 95/5 EtOH/water, 17 months at 40° C.): 4.9 % of AUC | impurity level ([3]; 9 mg/ml in 75/25 EtOH/10 mM glycine pH 10.5, 17 months at 40° C.): 3.8% | level of impurities ([3]; 9.0 mg/ml in EtOH/water 95/5, 17 months at 40° C., AUC at 270 nm): 5.4 % of AUC | level of impurities ([4]; 1.5 months at 40° C.): 22.7% | level of impurities ([4]; 4.5 months at 40° C.): 51.3% | level of impurities ([4]; redissolved immediately (time 0)): 2.9% | effect of elevation of pH from 7.5 to 9.5 prior to freeze-drying ([4]; freeze-dried, 1.5 months (with HSA) or 4.5 months at 40° C.): striking decrease in the level of impurities | decrease in the level of impurities by addition of HSA ([4]; freeze-dried, pH 7.5, HSA 1 mg/ml, 1.5 months of storage at 40° C.): ~50% | level of impurities ([5]; pH 7.5, 10 mM glycine, data not shown): 20% | level of impurities ([5]; pH 9.5, 10 mM glycine): 6.5% | impact of glycine buffer concentration on stability ([5]; glycine 0.01 mM to 10 mM, pH 9.5, 35 μg/ml): little impact | impurity level ([6]; vial 1: 2 mg/ml in 0.9% NaCl): 100% | pH after five weeks of storage ([6]; vial 1: 0.9% NaCl): < 5 | impurity level ([6]; vial 2: 2 mg/ml in 0.9% NaCl in 0.1 mN NaOH): 100% | pH after five weeks of storage ([6]; vial 2: 0.9% NaCl in 0.1 mN NaOH): < 5 | impurity level ([6]; vial 3: 2 mg/ml in 0.9% NaCl in 1 mN NaOH): 5.34 % of AUC 270 nm | final pH (after five weeks) ([6]; vial 3: 0.9% NaCl in 1 mN NaOH): 8.02 | impurity level ([6]; vial 4: 2 mg/ml in 0.9% NaCl in 10 mN NaOH): 3.46 % of AUC 270 nm | final pH (after five weeks) ([6]; vial 4: 0.9% NaCl in 10 mN NaOH): 9.83 | impurity level ([6]; vial 5: 2 mg/ml in 0.3% NaCl in 0.1N NaOH): 4.38 % of AUC 270 nm | final pH (after five weeks) ([6]; vial 5: 0.3% NaCl in 0.1N NaOH): 12.50 | impurity level ([6]; vial 6: 2 mg/ml in 1N NaOH): 5.77 % of AUC 270 nm | final pH (after five weeks) ([6]; vial 6: 1N NaOH): 13.03
